Source: US7323319B2, “RNA containing coenzymes, biotin, or fluorophores, and methods for their preparation and use” (The University of Southern Mississippi, priority 2003, dated 2008)
Like-named read-outs stand apart in the source and are kept apart here.

How the values were obtained:
[1] = target: T1, T7 RNA polymerase (Escherichia phage T7, UniProt P00573); type: biochemical; conditions: for effect of 3′ blocked adenosine derivatives on normal RNA transcription and on CoA-RNA transcription: 4 mM, without coenzymes or in the presence of 4 mM De-P-CoA; for relative CoA-RNA yield / total RNA yield relative to RNA obtained at 1 mM ATP and 0 mM De-P-CoA: 4 mM De-P-CoA
T1 sequence (P00573 whole entry): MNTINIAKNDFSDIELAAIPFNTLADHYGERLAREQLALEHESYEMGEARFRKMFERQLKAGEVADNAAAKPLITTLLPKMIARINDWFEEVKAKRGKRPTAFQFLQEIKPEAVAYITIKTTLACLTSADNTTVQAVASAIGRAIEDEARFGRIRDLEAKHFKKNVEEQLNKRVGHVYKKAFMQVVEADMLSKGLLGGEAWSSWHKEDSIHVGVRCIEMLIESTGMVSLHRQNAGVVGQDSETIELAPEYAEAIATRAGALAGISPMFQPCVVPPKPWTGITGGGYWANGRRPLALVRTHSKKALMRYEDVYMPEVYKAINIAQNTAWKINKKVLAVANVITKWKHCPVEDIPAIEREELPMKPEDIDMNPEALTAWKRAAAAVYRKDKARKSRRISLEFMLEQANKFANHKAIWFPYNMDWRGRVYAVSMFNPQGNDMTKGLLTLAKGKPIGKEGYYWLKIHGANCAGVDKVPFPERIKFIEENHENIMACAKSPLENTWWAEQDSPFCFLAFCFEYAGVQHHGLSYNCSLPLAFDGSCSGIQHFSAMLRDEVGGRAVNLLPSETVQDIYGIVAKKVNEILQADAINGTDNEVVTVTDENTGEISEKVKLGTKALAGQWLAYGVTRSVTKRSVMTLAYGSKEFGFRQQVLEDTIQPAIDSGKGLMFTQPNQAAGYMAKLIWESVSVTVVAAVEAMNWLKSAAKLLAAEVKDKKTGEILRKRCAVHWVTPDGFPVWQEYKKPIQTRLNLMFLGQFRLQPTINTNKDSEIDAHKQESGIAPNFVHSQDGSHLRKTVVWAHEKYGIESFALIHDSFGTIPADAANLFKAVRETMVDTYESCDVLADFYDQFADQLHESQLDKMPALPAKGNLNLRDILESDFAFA
Description: To physically separate CoA-RNA from pppRNA by PAGE, a different RNA sequence of 35 nucleotides was designed to allow a specific DNazyme (Santoro, S. W. and Joyce, G. F., Proc. Natl. Acad. Sci. USA 94: 4262-4266 (1997)) cleavage after transcription. Two DNA oligonucleotides with the sequence of 5′-[…]-3′ (SEQ ID NO:2) and 5′-[…]-3′ (SEQ ID NO:3) were used to construct (by PCR) a DNA duplex template, from which a 35 nt RNA sequence of 5′-[…]-3′ (SEQ ID NO:4) was transcribed. A DNazyme (with the sequence of 5′-[…]-3′; SEQ ID NO:5) was then used to specifically cleave off a portion of the 3′ heterogeneous ends of both CoA-RNA and pppRNA, yielding a homogeneous length of 25 nt CoA-RNA and pppRNA. Similar transcription conditions were used with the exception of different concentrations of ATP. Transcribed RNA (about […]) was incubated with […] DNazyme for 60 minutes at 37° C. in 50 mM MgCl2 and 50 mM Tris, pH 8.0. RNA was then analyzed by 12% denaturing PAGE.
(§1) After polyacrylamide gel electrophoresis, individual RNA bands were visualized through phosphorimaging (Molecular Imager, Bio-Rad Laboratories, Hercules, Calif.). Quantitation of different RNA bands was achieved through profile integration after horizontal background subtraction. Coenzyme-RNA (CoE-RNA) yields were calculated based on relative intensity of pppRNA bands (N, N+1, and N+2 bands) in the absence of coenzymes. To confirm the validity of the calculation, DNazyme-cleaved pppRNA and CoA-RNA were quantitated directly after gel resolution of CoA-RNA from pppRNA. In addition, CoA-RNA yield was determined independently by thiopropyl Sepharose 6B affinity chromatography based on its free sulfhydryl group.
To physically resolve coenzyme-RNA from pppRNA by gel, a DNazyme (Santoro, S. W., and Joyce, G. F., Proc. Natl. Acad. Sci. USA, 94: 4262-4266 (1997)) was designed to trim off the 3′ heterogeneous ends of RNA.

[2] = target: T1, T7 RNA polymerase; test: Coenzyme-initiated in vitro transcription of CoES7 RNA under T7 class II promoter, PAGE and phosphorimaging; type: biochemical; conditions: for relative intensity of N band RNA / relative intensity of N+1 band RNA / relative intensity of N+2 band RNA: 4 mM coenzyme, 1 mM each NTP, CoES7 RNA, 2 hours 37° C.; for total RNA yields versus standard transcription conditions: higher than 8 mM coenzyme
Protocol: Transcription promoter sequence was derived from the T7 class II promoter (φ2.5) (FIG. 1) (Dunn, J. J., and Studier, F. W., J. Mol. Biol. 166: 477-535 (1983)). The RNA sequence was from a previously isolated coenzyme-synthesizing ribozyme (Huang, F., et al., Biochemistry 39: 15548-15555 (2000)), CoES7, with the sequence of 5′-[…]-3′ (SEQ ID NO:1). Transcription was carried out under the following standard conditions: 1 mM each of ATP, UTP, GTP, and CTP, 40 mM Tris (pH 8.0), 6 mM MgCl2, 2 mM spermidine, 0.01% Triton X-100, 5 mM DTT, 0.2 unit/mL RNase inhibitor, […] DNA templates, and 5 unit/mL T7 RNA polymerase. In addition, different concentrations of coenzymes, De-P-CoA, NAD, and FAD were included to initiate transcription. For quantitation purposes, [α-^32P]ATP (NEN Life Science, Boston, Mass.) was also added to transcription solutions to internally label RNA transcripts. All transcription reactions were allowed to proceed for 2 hours at 37° C. before product analysis by 8% denaturing PAGE.
Transcription of CoES7 RNA was carried out under the standard conditions, with the addition of various concentrations of coenzymes. After fractionation by PAGE, different RNA bands became clearly visible. In the absence of any coenzymes (lane 1), transcription produced three pppRNA bands in decreasing order: the full-length RNA transcripts (N band), N+1, and N+2 bands (with one and two extra nucleotides added at the 3′ end of full-length RNA). Their relative yields were 59%, 35%, and 6% (from N to N+2), respectively. When one of the three coenzymes, De-P-CoA, NAD, and FAD, was added to the transcription solution (lanes 2-4), no additional RNA bands were generated. However, the relative intensity of the three RNA bands in each lane changed considerably when compared with that of lane 1. […] In the presence of 4 mM De-P-CoA (lane 2), the relative intensity of the three bands changed to 40%, 45%, and 15% (from N to N+2). The relative RNA band intensity were 30%, 49%, and 21% for both NAD- and FAD-initiated transcription (lanes 3 and 4). These changes in RNA band relative intensity resulted from the incorporation of coenzymes (De-P-CoA, NAD, and FAD) into RNA. When one of these coenzymes is incorporated to the 5′ end of RNA, the coenzyme-linked RNA (CoE-RNA) behaves as if an extra normal nucleotide is added to the pppRNA. Therefore, the N band CoE-RNA co-migrates with the N+1 band pppRNA, while the N+1 band CoE-RNA and the N+2 band pppRNA run together in the gel. The N+2 band CoE-RNA was barely visible because of its low intensity. To confirm the incorporation of coenzymes into RNA under the class II promoter, three independent experiments were performed: resolution of CoA-RNA from pppRNA by gel after DNazyme cleavage, measurement of free sulfhydryl group of CoA-RNA, and fluorescence emission spectrum of FAD-RNA.

[3] = target: T1, T7 RNA polymerase; conditions: CoES7 RNA prepared under 1 mM ATP and 4 mM De-P-CoA
Protocol: as §1

[4] = Fluorescence emission spectra of FAD-RNA and free FAD; type: physicochemical; conditions: 0.5 M sodium acetate, pH 5.2
[5] = different coenzyme concentrations (De-P-CoA: low concentrations; FAD: especially >4 mM), FIGS. 4A-4C
[6] = 0.2-0.5 mM ATP and 4 mM De-P-CoA

## Nc1ncnc2c1ncn2[C@@H]1O[C@H](CO)[C@@H](OP(=O)(O)O)[C@H]1O [3′ AMP]
[1]
  effect of 3′ blocked adenosine derivatives on normal RNA transcription and on CoA-RNA transcription: neither CoA nor 3′ AMP has detectable effect

## CC(C)(COP(=O)(O)OP(=O)(O)OC[C@H]1O[C@@H](n2cnc3c(N)ncnc32)[C@H](O)[C@@H]1OP(=O)(O)O)[C@@H](O)C(=O)NCCC(=O)NCCS [CoA, coenzyme A]
[1]
  effect of 3′ blocked adenosine derivatives on normal RNA transcription and on CoA-RNA transcription: neither CoA nor 3′ AMP has detectable effect

## CC(C)(COP(=O)(O)OP(=O)(O)OC[C@H]1O[C@@H](n2cnc3c(N)ncnc32)[C@H](O)[C@@H]1O)[C@@H](O)C(=O)NCCC(=O)NCCS [De-P-CoA, 3′-Dephospho coenzyme A]
[2]
  relative intensity of N band RNA: 40%
  relative intensity of N+1 band RNA: 45%
  relative intensity of N+2 band RNA: 15%
  total RNA yields versus standard transcription conditions: significantly lower
[2]; 4-8 mM coenzyme, standard transcription conditions
  coenzyme-RNA (CoE-RNA) yield over total RNA synthesized: 30-35%
[2]; [5]
  effect on total RNA yield (transcription): stimulates transcription to some extent
[2]; higher concentrations of De-P-CoA
  effect on total RNA yield (transcription): eventually becomes inhibitory
[3]
  loaded RNA retained on thiopropyl Sepharose 6B column (CoA-RNA yield): 30-35%
[1]; 0.1 mM ATP
  relative CoA-RNA yield: 56%
  total RNA yield relative to RNA obtained at 1 mM ATP and 0 mM De-P-CoA: 12%
[1]; 0.2 mM ATP
  relative CoA-RNA yield: 52%
  total RNA yield relative to RNA obtained at 1 mM ATP and 0 mM De-P-CoA: 44%
[1]; 0.5 mM ATP
  relative CoA-RNA yield: 46%
  total RNA yield relative to RNA obtained at 1 mM ATP and 0 mM De-P-CoA: 85%
[1]; 1 mM ATP
  total RNA yield relative to RNA obtained at 1 mM ATP and 0 mM De-P-CoA: 110%
[1]; 1 mM ATP, 1 mM GTP, CTP, UTP
  relative CoA-RNA yield: 33%
[1]; [6]
  CoA-RNA produced by transcription: over 50%
  reduction in total RNA yields: 20-50%

## Cc1cc2nc3c(=O)[nH]c(=O)nc-3n(C[C@H](O)[C@H](O)[C@H](O)COP(=O)(O)OP(=O)(O)OC[C@H]3O[C@@H](n4cnc5c(N)ncnc54)[C@H](O)[C@@H]3O)c2cc1C [FAD, flavin adenine dinucleotide]
[2]
  relative intensity of N band RNA: 30%
  relative intensity of N+1 band RNA: 49%
  relative intensity of N+2 band RNA: 21%
  total RNA yields versus standard transcription conditions: significantly lower
[2]; [5]
  effect on total RNA yield (transcription): somewhat inhibitory effect
[4]; 4 M urea
  enhancement of fluorescence intensity by urea: 1.7 fold
[4]; 7 M urea
  enhancement of fluorescence intensity by urea: 2.7 fold
